{"source": "patent US11203608B2", "about": "“Platinum-containing compounds, and related compositions and uses thereof” (Massachusetts Institute of Technology, priority 2019, dated 2021)", "key": {"[1]": {"assay": "Solubility and stability in organic solvents (observed during NMR)", "type": "physicochemical", "experimental": "To a stirred solution of K2PtCl4 (41.5 mg, 0.100 mmol) in water (30 mL), a solution of 9 bis(trifluoroacetic acid) salt (77.0 mg, 0.100 mmol) in water (9 mL) was added in one portion. Red precipitate formed immediately. The reaction was stirred at room temperature for 24 h. To the same solution was added AgNO3 aq. solution (0.10 M, 4.0 mL). The reaction was stirred at room temperature for 24 h. To this mixture was then added K2C2O4 aq. solution (0.20 M, 0.50 mL). The reaction was stirred at room temperature for 24 h. The reaction mixture was lyophilized together with a small amount of C18-reversed phase silica gel. […] The multiplicity of some ^1H NMR signals were not determined due to overlap. […] Due to the relatively low concentration of 12 in […], only part of the ^13C NMR signals were detected through ^13C-^1H correlation experiments. The ^13C NMR signals of Conformer A detected by ^1H-^13C HSQC and ^1H-^13C HMBC spectroscopy: ^13C{^1H} NMR (101 MHz, DMSO-d6) δ 16.98, 31.68, 34.80, 37.89, 55.85, 56.35, 64.07, 65.27, 66.70, 68.15, 98.84, 118.56, 118.86, 134.84, 159.78. The ^13C NMR signals of Conformer B detected by ^1H-^13C HSQC and ^1H-^13C HMBC spectroscopy: ^13C{^1H} NMR (101 MHz, DMSO-d6) δ 17.24, 32.01, 36.73, 37.27, 56.13, 56.31, 63.56, 64.07, 68.53, 69.85, 99.05, 118.68, 118.84, 135.99, 160.62. ^195Pt NMR (86 MHz, DMSO-d6) δ−1989 (br). […]"}, "U2OS human osteosarcoma": {"tested_on": "U2OS human osteosarcoma", "assay": "Cell growth, resazurin assay, U2OS", "type": "cell-based", "conditions": "96-h exposure (table title); read-out: IC50 U2OS (bone)", "method": "Cells were cultured in 10 mL of Advanced DMEM/F12 (ADMEM/F12), supplemented with 5% FBS, 2 mM GlutaMAX, and 1% Penicillin-Streptomycin in 10 cm tissue culture plates. Cells were then plated into 96-well plates with about 2.5×10^3 cells per well. Cells were plated with 200 μL per well of ADMEM/F12 supplemented with 5% FBS, 2 mM GlutaMAX, and 1% Penicillin-Streptomycin. Cells were treated with dose responses of doxorubicin, oxaliplatin, or doxaliplatin upon plating. The cells were then cultured for 72 hours following drug treatment, and cell growth was measured by resazurin assay."}}, "note": "pIC50: −log10 of the molar value.", "data": [{"smiles": "COc1cccc2c1C(=O)c1c(O)c3c(c(O)c1C2=O)CC(O)(C(=O)CO)CC3OC1CC(N)C(N)C(C)O1.O=C1[O][Pt][O]C1=O", "note": "(stereo not drawn) [DoxPt, Doxaliplatin]", "values": [{"measurement": "Solubility in DMF", "setting": "[1]; DMF", "result": "low solubility"}, {"measurement": "Solubility in DMSO-d6", "setting": "[1]; DMSO-d6", "result": "relatively high solubility"}, {"measurement": "pIC50", "setting": "U2OS human osteosarcoma", "result": 7.28}]}]}
